Results reported in publication PMC12133982, “Predominant T-cell epitopes of SARS-CoV-2 restricted by multiple prevalent HLA-B and HLA-C allotypes in Northeast Asia” (Frontiers in Immunology, 2025).
Peptide text beside a SMILES is read from it.

Key:
[1] = molecular target: HLA-C0102 (Homo sapiens, UniProt P10321, A176E/A330V/A35S/A97T/C350S/D114A/D33F/L171W/L180R/L218V/M285V/M309V/M331V/P208H/Q277E/Q291P/R121W/R243W/R30K/S123C/S140Y/S297R/T329A/T363A/V272M/V319A); assay: Competitive peptide binding assay, CIR-C0102
Method: (§1) Then, competitive peptide binding assays were performed.

[2] = molecular target: HLA-C0602 (Homo sapiens, UniProt P10321, A176E/A330V/C350S/L171W/L180W/L218V/M285V/M309V/M331V/N104K/P208H/Q277E/Q291P/R121W/S101N/S123Y/S297R/T329A/T363A/V319A/V328M); assay: Competitive peptide binding assay, CIR-C0602
[3] = molecular target: HLA-B4601 (Homo sapiens, UniProt P01889, A329T/A93R/C349S/D201E/E100V/E187L/E204Q/E69M/E70A/I90K/K202T/N87E/R155S/R180W/S121R/S35A/S48A/V306I/V36M/Y140S); assay: Competitive peptide binding assay, CIR-B4601; settings: for IC50: HMy2.CIR-B4601 cells, reference Cy5-[…], class from inhibition at 5 and 15 μM, flow cytometry MFI, read-out: Binding affinity with HLA-B4601; for inhibition at 5 µM: read-out: Inhibition % of Cy5-reference peptide binding, CIR-B4601, 5μM peptide; for inhibition at 15 µM: read-out: Inhibition % of Cy5-reference peptide binding, CIR-B4601, 15μM peptide
Method: as §1

[4] = molecular target: HLA-B3501 (Homo sapiens, UniProt P01889, A329T/A93T/A95T/C349S/D201E/D98Y/E176V/E187L/E204Q/E69T/I218V/K202T/L119I/Q94N/R155S/R180L/S121R/S35A/S48A/T118I/V127L/V306I/V36M/Y140S/Y91F); assay: Competitive peptide binding assay, CIR-B3501; settings: HMy2.CIR-B3501 cells, reference Cy5-[…], class from inhibition at 5 and 15 μM, flow cytometry MFI; read-out: Binding affinity with HLA-B3501
Method: as §1

[5] = molecular target: HLA-B1301 (Homo sapiens, UniProt P01889, A65T/A93T/A95T/D138N/D201E/D98Y/E176V/E204Q/E69M/E70A/G107R/K202T/L105A/L119I/N104T/N87E/Q94N/R106L/R155S/R169L/R180L/S101N/S121R/S35A/S48T/T118I/V127L/V36M/Y140L/Y91S); assay: Competitive peptide binding assay, CIR-B1301; settings: HMy2.CIR-B1301 cells, reference Cy5-[…], class from inhibition at 5 and 15 μM, flow cytometry MFI; read-out: Binding affinity with HLA-B1301
Method: as §1

[6] = molecular target: HLA-B5801 (Homo sapiens, UniProt P01889, A329T/C349S/D201E/D98Y/E176V/E187L/E204Q/E69T/G107R/I218V/I90N/K202T/L105A/L119I/N104I/N87E/Q89R/Q94S/R106L/R155S/R180L/R86G/S101N/S121R/S35A/S48A/T118I/V127L/V306I/V36M/Y140S/Y91M); assay: Competitive peptide binding assay, CIR-B5801; settings: HMy2.CIR-B5801 cells, reference Cy5-[…], class from inhibition at 5 and 15 μM, flow cytometry MFI; read-out: Binding affinity with HLA-B5801
Method: as §1

[7] = molecular target: HLA-B1501 (Homo sapiens, UniProt P01889, A329T/A93T/A95T/C349S/D201E/D98Y/E187L/E204Q/E69M/E70A/K202T/N87E/Q94N/R155S/R180W/S121R/S35A/S48A/V306I/V36M/Y140S/Y91S); assay: Competitive peptide binding assay, CIR-B1501; settings: HMy2.CIR-B1501 cells, reference Cy5-[…], class from inhibition at 5 and 15 μM, flow cytometry MFI; read-out: Binding affinity with HLA-B1501
Method: as §1

[8] = molecular target: HLA-B1502 (Homo sapiens, UniProt P01889, A329T/A93T/A95T/C349S/D201E/D98Y/E187L/E204Q/E69M/E70A/H137Y/K202T/L119I/Q94N/R155S/R180L/S121R/S35A/S48A/T118I/V306I/V36M/Y140S/Y91S); assay: Competitive peptide binding assay, CIR-B1502; settings: HMy2.CIR-B1502 cells, reference Cy5-[…], class from inhibition at 5 and 15 μM, flow cytometry MFI; read-out: Binding affinity with HLA-B1502
Method: as §1

[9] = read-out: Inhibition % of Cy5-reference peptide binding

Compound | IC50 [2] [µM] | IC50 [4] [µM] | IC50 [5] [µM] | IC50 [7] [µM] | IC50 [8] [µM] | other results
CC(C)C[C@H](NC(=O)[C@H](C)NC(=O)[C@@H](NC(=O)[C@@H](N)CC(C)C)[C@@H](C)O)C(=O)N[C@@H](CCCNC(=N)N)C(=O)N[C@@H](CC(C)C)C(=O)N[C@@H](CS)C(=O)N[C@@H](C)C(=O)N[C@@H](Cc1ccc(O)cc1)C(=O)O [Epitope M51] (H-LTALRLCAY-OH; N-terminus and C-terminus assumed) | < 5 | – | – | – | – | IC50 ([1]; HMy2.CIR-C0102 cells, reference Cy5-[…], class from inhibition at 5 and 15 μM, flow cytometry MFI, read-out: Binding affinity with HLA-C0102): 5 to 15 µM; inhibition at 5 µM [1, 9]: 42.9%; inhibition at 15 µM [1, 9]: 77.6%
CC(C)C[C@H](NC(=O)[C@@H](NC(=O)[C@@H]1CCCN1C(=O)[C@H](CC(N)=O)NC(=O)[C@H](CC(=O)O)NC(=O)[C@H](Cc1ccccc1)NC(=O)[C@H](CCCNC(=N)N)NC(=O)[C@@H](N)CCCCN)C(C)C)C(=O)N1CCC[C@H]1C(=O)N[C@@H](Cc1ccccc1)C(=O)O [Epitope M125] (H-KRFDNPVLPF-OH; N-terminus and C-terminus assumed) | 5 to 15 | – | – | – | – | –
CC(C)[C@H](NC(=O)CNC(=O)[C@H](CCC(=O)O)NC(=O)[C@H](CCCNC(=N)N)NC(=O)[C@@H]1CCCN1C(=O)[C@H](Cc1ccccc1)NC(=O)[C@H](Cc1c[nH]cn1)NC(=O)[C@H](C)N)C(=O)N[C@@H](Cc1ccccc1)C(=O)O [Epitope M157] (H-AHFPREGVF-OH; N-terminus and C-terminus assumed) | > 15 | – | – | – | – | –
CC[C@H](C)[C@H](N)C(=O)N[C@H](C(=O)N[C@@H](CC(=O)O)C(=O)N[C@@H](C)C(=O)N[C@H](C(=O)N[C@@H](CC(=O)O)C(=O)N[C@@H](CS)C(=O)N[C@@H](C)C(=O)N[C@@H](CC(C)C)C(=O)O)C(C)C)[C@@H](C)O [Epitope M161, ITDAVDCAL] (H-ITDAVDCAL-OH; N-terminus and C-terminus assumed) | > 15 | – | – | – | – | –
CC(C)[C@H](NC(=O)[C@H](Cc1ccc(O)cc1)NC(=O)[C@H](CCC(=O)O)NC(=O)[C@H](Cc1ccccc1)NC(=O)[C@@H](N)[C@@H](C)O)C(=O)N[C@@H](CO)C(=O)N[C@@H](CCC(N)=O)C(=O)N1CCC[C@H]1C(=O)N[C@@H](Cc1ccccc1)C(=O)O [Epitope M180] (H-TFEYVSQPF-OH; N-terminus and C-terminus assumed) | > 15 | – | – | – | – | –
CC[C@H](C)[C@H](NC(=O)[C@H](C)NC(=O)[C@@H](N)CC(C)C)C(=O)N[C@@H](CC(C)C)C(=O)N[C@H](C(=O)N[C@@H](C)C(=O)N[C@@H](CC(C)C)C(=O)N[C@@H](CCCNC(=N)N)C(=O)N[C@@H](CC(C)C)C(=O)O)[C@@H](C)O [Epitope Y7] (H-LAILTALRL-OH; N-terminus and C-terminus assumed) | – | 5 to 15 | – | – | – | IC50 [3]: > 15 µM
CC[C@H](C)[C@H](NC(=O)[C@@H](NC(=O)[C@H](CC(C)C)NC(=O)[C@H](CCC(=O)O)NC(=O)[C@H](CO)NC(=O)[C@H](CCC(=O)O)NC(=O)[C@H](CC(C)C)NC(=O)[C@H](CC(C)C)NC(=O)[C@@H]1CCCN1C(=O)[C@@H](N)CCCNC(=N)N)C(C)C)C(=O)O [Epitope Y43] (H-RPLLESELVI-OH; N-terminus and C-terminus assumed) | – | – | 5 to 15 | – | – | –
CC(C)C[C@H](NC(=O)[C@H](CC(C)C)NC(=O)[C@H](CC(C)C)NC(=O)[C@H](C)NC(=O)[C@H](CC(C)C)NC(=O)[C@H](C)NC(=O)[C@H](C)NC(=O)[C@H](CC(=O)O)NC(=O)CN)C(=O)O [Epitope Y65] (H-GDAALALLL-OH; N-terminus and C-terminus assumed) | – | > 15 | < 5 | 5 to 15 | – | IC50 [6]: 5 to 15 µM
CC[C@H](C)[C@H](NC(=O)[C@H](CCC(N)=O)NC(=O)[C@@H](N)CC(C)C)C(=O)N1CCC[C@H]1C(=O)N[C@@H](Cc1ccccc1)C(=O)N[C@@H](C)C(=O)N[C@@H](CCSC)C(=O)N[C@@H](CCC(N)=O)C(=O)N[C@@H](CCSC)C(=O)O [Epitope Y81] (H-LQIPFAMQM-OH; N-terminus and C-terminus assumed) | – | – | < 5 | > 15 | – | IC50 [3]: > 15 µM; inhibition at 5 µM [3]: 9.21%; inhibition at 15 µM [3]: 44%
CC(C)[C@H](NC(=O)CNC(=O)[C@H](Cc1c[nH]cn1)NC(=O)[C@@H]1CCCN1C(=O)[C@H](C)NC(=O)[C@H](CO)NC(=O)[C@@H](N)CCC(N)=O)C(=O)N[C@H](C(=O)N[C@@H](Cc1ccccc1)C(=O)O)C(C)C [Epitope Y146] (H-QSAPHGVVF-OH; N-terminus and C-terminus assumed) | – | > 15 | – | < 5 | 5 to 15 | –
CC(C)C[C@H](NC(=O)[C@@H](NC(=O)[C@H](CCCNC(=N)N)NC(=O)[C@H](CO)NC(=O)[C@@H](NC(=O)[C@H](C)NC(=O)[C@@H](N)C(C)C)[C@@H](C)O)[C@@H](C)O)C(=O)N[C@@H](CO)C(=O)N[C@@H](Cc1ccc(O)cc1)C(=O)O [Epitope Y158] (H-VATSRTLSY-OH; N-terminus and C-terminus assumed) | – | 5 to 15 | – | < 5 | 5 to 15 | IC50 [6]: > 15 µM
CC(C)C[C@H](NC(=O)[C@@H](N)CCC(N)=O)C(=O)N[C@H](C(=O)N1CCC[C@H]1C(=O)N[C@H](C(=O)N[C@@H](Cc1c[nH]c2ccccc12)C(=O)N[C@@H](CCCNC(=N)N)C(=O)N[C@H](C(=O)N[C@@H](Cc1ccc(O)cc1)C(=O)O)C(C)C)[C@@H](C)O)[C@@H](C)O [Epitope Y175] (H-QLTPTWRVY-OH; N-terminus and C-terminus assumed) | – | > 15 | > 15 | > 15 | 5 to 15 | IC50 [6]: < 5 µM
CC[C@H](C)[C@H](NC(=O)CNC(=O)[C@H](CC(=O)O)NC(=O)[C@H](CCCCN)NC(=O)[C@H](CC(N)=O)NC(=O)[C@H](C)NC(=O)CNC(=O)[C@H](Cc1ccc(O)cc1)NC(=O)[C@@H]1CCCN1C(=O)[C@@H](N)CC(C)C)C(=O)O [Epitope Y273] (H-LPYGANKDGI-OH; N-terminus and C-terminus assumed) | – | – | – | > 15 | 5 to 15 | IC50 [3]: > 15 µM; inhibition at 5 µM [3]: 11.6%; inhibition at 15 µM [3]: 31%; IC50 [6]: > 15 µM
CC[C@H](C)[C@H](N)C(=O)N[C@@H](C)C(=O)N[C@@H](CC(N)=O)C(=O)N[C@@H](CCC(N)=O)C(=O)N[C@@H](Cc1ccccc1)C(=O)N[C@@H](CC(N)=O)C(=O)N[C@@H](CO)C(=O)N[C@@H](C)C(=O)N[C@H](C(=O)O)[C@@H](C)CC [Epitope Y283] (H-IANQFNSAI-OH; N-terminus and C-terminus assumed) | – | – | > 15 | 5 to 15 | > 15 | –
